# Laboratory results published in ChEMBL document CHEMBL6071211, “Invention of VH-937, a Potent HIV-1 Maturation Inhibitor with the Potential for Infrequent Oral Dosing in Humans” (ACS Med Chem Lett, 2024).
# Assays:
# [1] = test system: Human immunodeficiency virus 1; experiment: Binding affinity to HIV1 Gag A364V mutant assessed as dissociation half life by virus-like particle (VLP) assay
# [2] = test system: Human immunodeficiency virus 1; experiment: In vitro antiviral activity against fully replicating HIV1 NL4-3 harboring Gag T332S/V362I/prR41G mutant; format: functional, organism-based; details: Human immunodeficiency virus 1, NL4-3
# [3] = test system: Human immunodeficiency virus 1; experiment: In vitro antiviral activity against fully replicating HIV1 NL4-3 harboring Gag A364V mutant; format: functional, organism-based; details: Human immunodeficiency virus 1, NL4-3
# [4] = test system: Human immunodeficiency virus 1; experiment: In vitro antiviral activity against fully replicating HIV1 harboring Gag deltaV370 mutant by multicycle assay; format: functional, organism-based
# [5] = test system: Human immunodeficiency virus 1; experiment: In vitro antiviral activity against fully replicating HIV1 harboring Gag V370A/deltaV371 mutant by multicycle assay; format: functional, organism-based
# [6] = test system: Human immunodeficiency virus 1; experiment: In vitro antiviral activity against fully replicating HIV1 harboring Gag […]/V370A mutant by multicycle assay; format: functional, organism-based
# [7] = test system: Human immunodeficiency virus 1; experiment: In vitro antiviral activity against fully replicating HIV1 harboring Gag T332S/[…]/prR41G mutant by multicycle assay; format: functional, organism-based
# [8] = test system: Human immunodeficiency virus 1; experiment: Ratio of EC50 for antiviral activity against fully replicating HIV1 harboring Gag deltaV370 mutant by multicycle assay to EC50 for antiviral activity against fully replicating wild type HIV1 NLRepRluc-P373S by multicycle assay; format: functional
# [9] = test system: Human immunodeficiency virus 1; experiment: Ratio of EC50 for antiviral activity against fully replicating HIV1 harboring to Gag T332S/[…]/prR41G mutant by multicycle assay to EC50 for antiviral activity against fully replicating wild type HIV1 NLRepRluc-P373S by multicycle assay; format: functional
# [10] = test system: Human immunodeficiency virus 1; experiment: In vitro antiviral activity against fully replicating wild type HIV1 NLRepRluc-P373S assessed as maximum percent inhibition by multicycle assay relative to control; format: functional
# [11] = test system: Human immunodeficiency virus 1; experiment: In vitro antiviral activity against fully replicating HIV1 harboring Gag V370A mutant assessed as maximum percent inhibition by multicycle assay relative to control; format: functional
# [12] = test system: Human immunodeficiency virus 1; experiment: In vitro antiviral activity against fully replicating HIV1 harboring Gag T332S/[…]/prR41G mutant assessed as maximum percent inhibition by multicycle assay relative to control; format: functional
# [13] = test system: Human immunodeficiency virus 1; experiment: In vitro antiviral activity against fully replicating pseudotype HIV1 harboring Gag deltaV370 mutant by single cycle assay; format: functional, organism-based
# [14] = test system: Human immunodeficiency virus 1; experiment: In vitro antiviral activity against fully replicating pseudotype HIV1 harboring Gag V3621/V370A mutant by single cycle assay; format: functional, organism-based
# [15] = test system: Human immunodeficiency virus 1; experiment: In vitro antiviral activity against fully replicating pseudotype HIV1 harboring Gag T332S/[…]/prR41G mutant by single cycle assay; format: functional, organism-based
# [16] = test system: Human immunodeficiency virus 1; experiment: In vitro antiviral activity against fully replicating wild type pseudotype HIV1 NLRepRluc-P373S assessed as maximum percent inhibition by single cycle assay relative to control; format: functional
# [17] = test system: Human immunodeficiency virus 1; experiment: In vitro antiviral activity against fully replicating pseudotype HIV1 harboring Gag deltaV370 mutant assessed as maximum percent inhibition by single cycle assay relative to control; format: functional
# [18] = test system: Human immunodeficiency virus 1; experiment: In vitro antiviral activity against fully replicating pseudotype HIV1 harboring Gag V3621/V370A mutant assessed as maximum percent inhibition by single cycle assay relative to control; format: functional
# [19] = test system: Human immunodeficiency virus 1; experiment: In vitro antiviral activity against fully replicating pseudotype HIV1 harboring Gag T332S/[…]/prR41G mutant assessed as maximum percent inhibition by single cycle assay relative to control; format: functional
# [20] = test system: Human immunodeficiency virus 1; experiment: In vitro antiviral activity against fully replicating pseudotype HIV1 harboring Gag A364V mutant assessed as maximum percent inhibition by single cycle assay relative to control; format: functional
# [21] = test system: Human immunodeficiency virus 1; experiment: In vitro antiviral activity against HIV1 subtype A clinical isolate I-2496; format: functional, organism-based; details: Human immunodeficiency virus 1, I-2496
# [22] = test system: Human immunodeficiency virus 1; experiment: In vitro antiviral activity against HIV1 subtype B clinical isolate 92T593; format: functional, organism-based; details: Human immunodeficiency virus 1, 92T593
# [23] = test system: Human immunodeficiency virus 1; experiment: In vitro antiviral activity against HIV1 subtype D clinical isolate UG270; format: functional, organism-based; details: Human immunodeficiency virus 1, UG270
# [24] = Clearance in mouse at 1 mg/kg, iv; format: ADME, organism-based; details: in vivo
# [25] = Volume of distribution at steady state in mouse at 1 mg/kg, iv; format: ADME, organism-based; details: in vivo, read-out: Vdss
# [26] = Oral bioavailability in mouse at 5 mg/kg; format: ADME, organism-based; details: in vivo
# [27] = Elimination half life in rat at 1 mg/kg, iv; format: ADME, organism-based; details: in vivo, read-out: beta t1/2 (converted)
# [28] = Clearance in rat at 1 mg/kg, iv; format: ADME, organism-based; details: in vivo
# [29] = Volume of distribution at steady state in rat at 1 mg/kg, iv; format: ADME, organism-based; details: in vivo, read-out: Vdss
# [30] = AUC (infinity) in rat at 5 mg/kg, po; format: ADME, organism-based; details: in vivo
# [31] = Elimination half life in dog at 2 mg/kg, iv; format: ADME, organism-based, Canis lupus familiaris; details: in vivo, read-out: beta t1/2 (converted)
# [32] = Clearance in dog at 2 mg/kg, iv; format: ADME, organism-based, Canis lupus familiaris; details: in vivo
# [33] = Elimination half life in Cynomolgus monkey at 2 mg/kg, iv; format: ADME, organism-based, Macaca fascicularis; details: in vivo, read-out: beta t1/2 (converted)
# [34] = AUC (infinity) in Cynomolgus monkey at 5 mg/kg, po; format: ADME, organism-based, Macaca fascicularis; details: in vivo
# [35] = Metabolic stability in human liver microsomes assessed as half life; format: ADME, Microsome
# [36] = Metabolic stability in dog liver microsomes assessed as half life; format: ADME, Canis lupus familiaris, Microsome
# [37] = Lipophilicity, logD of compound; format: physicochemical; details: octanol/water
# [38] = Aqueous solubility of compound in fasted state simulated intestinal fluid (FaSSIF) at pH 6.6; format: physicochemical
# [39] = Aqueous solubility of compound in fed state simulated intestinal fluid (FeSSIF); format: physicochemical; details: simulated gi fluid
# Cytochrome P450 2B6 = target: T1, Cytochrome P450 2B6 (Homo sapiens, UniProt P20813); experiment: Inhibition of CYP2B6 (unknown origin); format: ADME
# T1 sequence (P20813 whole entry): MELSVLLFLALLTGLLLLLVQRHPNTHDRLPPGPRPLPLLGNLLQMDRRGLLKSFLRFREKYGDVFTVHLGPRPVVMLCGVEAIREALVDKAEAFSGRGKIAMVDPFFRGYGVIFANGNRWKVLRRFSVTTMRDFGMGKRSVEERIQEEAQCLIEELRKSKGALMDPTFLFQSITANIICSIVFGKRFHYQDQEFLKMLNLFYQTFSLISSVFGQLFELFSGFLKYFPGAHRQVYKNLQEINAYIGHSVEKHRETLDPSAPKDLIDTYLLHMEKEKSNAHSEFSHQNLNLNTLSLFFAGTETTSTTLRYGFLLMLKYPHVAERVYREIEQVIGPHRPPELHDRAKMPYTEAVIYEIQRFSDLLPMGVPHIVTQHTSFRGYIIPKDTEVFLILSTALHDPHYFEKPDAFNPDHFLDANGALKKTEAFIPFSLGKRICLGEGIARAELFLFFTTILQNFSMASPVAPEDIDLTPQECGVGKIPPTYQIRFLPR
# Cytochrome P450 2D6 = Cytochrome P450 2D6 (Homo sapiens, UniProt P10635); experiment: Inhibition of CYP2D6 (unknown origin); format: ADME
# Chain of Cytochrome P450 2D6 (P10635 whole entry): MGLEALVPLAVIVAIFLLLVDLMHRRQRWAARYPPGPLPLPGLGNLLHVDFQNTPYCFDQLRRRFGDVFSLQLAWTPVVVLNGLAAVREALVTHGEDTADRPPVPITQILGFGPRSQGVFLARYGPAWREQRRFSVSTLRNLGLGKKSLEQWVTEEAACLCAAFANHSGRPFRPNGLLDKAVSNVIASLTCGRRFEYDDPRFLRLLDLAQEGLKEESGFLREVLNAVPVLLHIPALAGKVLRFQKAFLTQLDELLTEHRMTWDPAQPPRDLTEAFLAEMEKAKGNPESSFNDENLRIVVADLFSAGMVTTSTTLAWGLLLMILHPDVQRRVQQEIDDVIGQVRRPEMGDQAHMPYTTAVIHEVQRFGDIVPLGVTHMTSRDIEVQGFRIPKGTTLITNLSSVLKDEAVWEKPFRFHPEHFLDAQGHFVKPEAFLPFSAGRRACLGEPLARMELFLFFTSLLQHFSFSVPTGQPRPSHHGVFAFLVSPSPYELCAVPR
# Cytochrome P450 3A4 = Cytochrome P450 3A4 (Homo sapiens, UniProt P08684); experiment: Inhibition of CYP3A4 (unknown origin); format: ADME
# Chain of Cytochrome P450 3A4 (P08684 whole entry): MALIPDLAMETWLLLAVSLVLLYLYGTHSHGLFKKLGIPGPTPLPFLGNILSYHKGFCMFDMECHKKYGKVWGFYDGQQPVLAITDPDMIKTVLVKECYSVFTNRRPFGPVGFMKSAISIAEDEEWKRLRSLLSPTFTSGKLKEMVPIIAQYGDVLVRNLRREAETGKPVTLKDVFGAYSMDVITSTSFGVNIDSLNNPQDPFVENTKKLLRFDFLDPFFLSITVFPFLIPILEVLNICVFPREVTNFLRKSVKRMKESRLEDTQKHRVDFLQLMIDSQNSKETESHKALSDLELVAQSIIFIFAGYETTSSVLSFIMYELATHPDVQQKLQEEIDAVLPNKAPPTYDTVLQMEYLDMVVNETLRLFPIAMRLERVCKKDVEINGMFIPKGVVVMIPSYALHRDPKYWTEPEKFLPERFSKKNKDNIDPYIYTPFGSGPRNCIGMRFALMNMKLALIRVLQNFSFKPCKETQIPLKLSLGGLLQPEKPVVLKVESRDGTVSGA
# [40] = Genotoxicity in Salmonella typhimurium by Ames test; format: toxicity; details: salmonella enterica subsp. enterica serovar typhimurium
# [41] = Toxicity in normal healthy human volunteers assessed as adverse effect at 10 mg for 15 days and followed by 30 mg; details: in vivo, 360 h, time 15 day
structure (smiles),measurement,setting,value
C=C(C)[C@@H]1CC[C@]2(NCCN3CCS(=O)(=O)CC3)CC[C@]3(C)[C@H](CC[C@@H]4[C@@]5(C)CC=C(C6=CC[C@](COc7ncccc7C#N)(C(=O)O)CC6)C(C)(C)[C@@H]5CC[C@]43C)[C@@H]12,T1/2,[1],0.483 h
same,EC50,[2],8 nM
same,EC50,[3],5 nM
same,EC50,[4],4 nM
same,EC50,[5],5 nM
same,EC50,[6],2 nM
same,EC50,[7],8 nM
same,Ratio EC50,[8],2
same,Ratio EC50,[9],4
same,Imax,[10],99.1%
same,Imax,[11],98.5%
same,Imax,[12],98%
same,EC50,[13],12 nM
same,EC50,[14],11 nM
same,EC50,[15],24 nM
same,Imax,[16],99%
same,Imax,[17],100%
same,Imax,[18],98%
same,Imax,[19],96%
same,Imax,[20],57%
same,EC50,[21],3 nM
same,EC50,[22],1 nM
same,EC50,[23],2 nM
same,clearance,[24],0.63 mL/min/kg
same,Vd,[25],0.53 L/kg
same,bioavailability,[26],46%
same,half-life,[27],8.6 h
same,clearance,[28],1.23 mL/min/kg
same,Vd,[29],0.87 L/kg
same,AUC(0-inf),[30],36.3 µM·h
same,half-life,[31],26.9 h
same,clearance,[32],0.21 mL/min/kg
same,half-life,[33],12.3 h
same,AUC(0-inf),[34],56.3 µM·h
same,half-life,[35],> 2 h
same,half-life,[36],> 2 h
same,logD,[37],4.74
same,solubility,[38],19000 µg/mL
same,solubility,[39],363 µg/mL
same,IC50,Cytochrome P450 2B6,> 4400 nM
same,IC50,Cytochrome P450 2D6,> 4400 nM
same,IC50,Cytochrome P450 3A4,> 4400 nM
same,Activity,[40],Non-Toxic
same,Activity,[41],Non-Toxic
